Legend:
BChE from the plasma = BChE from the plasma (Homo sapiens (Human), UniProt P06276); assay: Ellman's method, butyrylcholinesterase inhibition; type: biochemical; conditions: for IC50: human plasma BChE, Ellman's method, phosphate buffer pH 8.0 as reference; for Selectivity IC50(AChE)/IC50(BChE): ratio of IC50 for AChE to IC50 for BChE
Description: (§1) The biological activity of the compounds of general formula (I) towards the cholinesterase inhibition was evaluated using Ellman's method (Ellman, G. L.; Courtney, K. D.; Anders, B.; Featherstone, R. M. Biochem. Pharmacol. 1961, 7, 88-95).
(§2) The inhibitor causes the enzyme activity drop which is dependent on the inhibitor concentration. […] The amount of the hydrolyzed ASCh/BSCh is measured indirectly, by quantification of the product of its reaction with DTNB (5,5′-dithio-bis-2-nitrobenzoic acid). Ellman's method relies therefore on the spectrophotometric quantification of product of the reaction between acylthiocholine and DTNB. IC50 value corresponds to the inhibitor concentration which causes the 50% decrease of the enzyme activity.
(§3) The enzymes are derived from human blood: AChE from the erythrocytes and BChE from the plasma. The phosphate buffer of pH 8.0 is used as the reference compound (lack of inhibition; enzyme activity—100%).

[1] = target: AChE from the erythrocytes (Homo sapiens (Human), UniProt P22303); assay: Ellman's method, acetylcholinesterase inhibition; type: biochemical; conditions: human erythrocyte AChE, phosphate buffer pH 8.0 as reference
Description: as §1, §2, §3

Sequence of BChE from the plasma (P06276 29-602): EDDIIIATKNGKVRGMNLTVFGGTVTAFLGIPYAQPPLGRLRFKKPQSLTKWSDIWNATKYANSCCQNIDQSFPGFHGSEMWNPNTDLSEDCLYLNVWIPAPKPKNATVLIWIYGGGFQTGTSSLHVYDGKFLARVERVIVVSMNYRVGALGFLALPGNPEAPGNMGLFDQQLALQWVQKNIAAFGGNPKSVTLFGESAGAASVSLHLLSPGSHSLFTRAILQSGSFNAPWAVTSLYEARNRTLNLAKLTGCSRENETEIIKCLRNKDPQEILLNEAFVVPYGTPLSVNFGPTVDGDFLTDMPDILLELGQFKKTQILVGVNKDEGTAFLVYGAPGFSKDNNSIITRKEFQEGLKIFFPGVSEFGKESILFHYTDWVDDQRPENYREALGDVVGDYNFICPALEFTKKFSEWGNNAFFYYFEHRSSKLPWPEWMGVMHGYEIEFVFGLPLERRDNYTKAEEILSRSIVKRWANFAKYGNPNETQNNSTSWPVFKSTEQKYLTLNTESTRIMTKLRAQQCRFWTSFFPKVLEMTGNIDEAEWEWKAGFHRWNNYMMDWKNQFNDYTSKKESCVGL
Sequence of AChE from the erythrocytes (P22303 32-574 with tags or gaps limits assumed): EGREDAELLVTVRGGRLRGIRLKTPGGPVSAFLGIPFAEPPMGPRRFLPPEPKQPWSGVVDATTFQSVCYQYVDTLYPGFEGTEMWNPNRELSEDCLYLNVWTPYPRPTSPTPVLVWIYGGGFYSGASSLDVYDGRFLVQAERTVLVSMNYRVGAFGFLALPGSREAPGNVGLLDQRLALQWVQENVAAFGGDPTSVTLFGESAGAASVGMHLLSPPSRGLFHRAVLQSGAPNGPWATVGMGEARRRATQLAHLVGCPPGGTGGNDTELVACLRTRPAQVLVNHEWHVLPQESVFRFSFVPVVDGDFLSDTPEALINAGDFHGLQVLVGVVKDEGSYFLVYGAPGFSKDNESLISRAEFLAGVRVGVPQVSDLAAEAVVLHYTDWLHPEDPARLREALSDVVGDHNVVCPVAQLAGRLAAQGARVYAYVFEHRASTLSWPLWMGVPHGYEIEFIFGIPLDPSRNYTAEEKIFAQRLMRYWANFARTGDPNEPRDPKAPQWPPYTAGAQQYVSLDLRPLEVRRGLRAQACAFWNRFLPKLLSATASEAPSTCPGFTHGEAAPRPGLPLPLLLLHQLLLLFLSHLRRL

CC(=O)O[C@@]12CCN(C(C)=O)[C@@H]1N(C(C)=O)c1ccc(OC(=O)NCCCCCCNc3c4c(nc5ccccc35)CCCC4)cc12 (stereo in doubt) [Example 7, 1,8-diacetyl-5-({[6-(1,2,3,4-tetrahydroacridin-9-ylamino)hexyl]carbamoyl}oxy)-2,3,8,8a-tetrahydropyrrolo[2,3-b]indol-3a(1H)-yl acetate]
IC50 (BChE from the plasma): 3.15 ± 0.83 nM | Selectivity IC50(AChE)/IC50(BChE) (BChE from the plasma): 11.7 | IC50 [1]: 36.8 ± 2.87 nM

CC(=O)NCCc1c[nH]c2ccc(OC(=O)NCCCCCCCNc3c4c(nc5ccccc35)CCCC4)cc12 [Example 1, 3-[2-(acetylamino)ethyl]-1H-indol-5-yl[7-(1,2,3,4-tetrahydroacridin-9-ylamino)heptyl]carbamate]
IC50 (BChE from the plasma): 0.25 ± 0.02 nM | Selectivity IC50(AChE)/IC50(BChE) (BChE from the plasma): 135.1 | IC50 [1]: 33.8 ± 2.74 nM

CC(=O)NCCc1c[nH]c2ccc(OC(=O)NCCCCCCNc3c4c(nc5ccccc35)CCCC4)cc12 [Example 3, 3-[2-(acetylamino)ethyl]-1H-indol-5-yl[6-(1,2,3,4-tetrahydroacridin-9-ylamino)hexyl]carbamate]
IC50 (BChE from the plasma): 2.04 ± 0.22 nM | Selectivity IC50(AChE)/IC50(BChE) (BChE from the plasma): 87.4 | IC50 [1]: 178 ± 16.3 nM

CC(=O)NCCc1c[nH]c2ccc(OC(=O)NCCCCCCCNc3c4c(nc5cc(Cl)ccc35)CCCC4)cc12 [Example 4, 3-[2-(acetylamino)ethyl]-1H-indol-5-yl{7-[(6-chloro-1,2,3,4-tetrahydroacridin-9-yl)amino]heptyl}carbamate]
Selectivity IC50(AChE)/IC50(BChE) (BChE from the plasma): 20.3

CC(=O)NCCc1c[nH]c2ccc(OC(=O)NCCNc3c4c(nc5cc(Cl)ccc35)CCCC4)cc12 [Example 5, 3-[2-(acetylamino)ethyl]-1H-indol-5-yl{2-[(6-chloro-1,2,3,4-tetrahydroacridin-9-yl)amino]ethyl}carbamate]
Selectivity IC50(AChE)/IC50(BChE) (BChE from the plasma): 0.6

CC(=O)NCCc1c[nH]c2ccc(OC(=O)NCCCNc3c4c(nc5ccccc35)CCCC4)cc12 [Example 8, 3-[2-(acetylamino)ethyl]-1H-indol-5-yl[3-(1,2,3,4-tetrahydroacridin-9-ylamino)propyl]carbamate]
IC50 (BChE from the plasma): 58.2 ± 9.62 nM | Selectivity IC50(AChE)/IC50(BChE) (BChE from the plasma): 4.6 | IC50 [1]: 270 ± 19.4 nM

CC(=O)NCCc1c[nH]c2ccc(OC(=O)NCCCCNc3c4c(nc5ccccc35)CCCC4)cc12 [Example 9, 3-[2-(acetylamino)ethyl]-1H-indol-5-yl[4-(1,2,3,4-tetrahydroacridin-9-ylamino)butyl]carbamate]
IC50 (BChE from the plasma): 15.5 ± 2.84 nM | Selectivity IC50(AChE)/IC50(BChE) (BChE from the plasma): 24.4 | IC50 [1]: 378 ± 42.4 nM

CC(=O)NCCc1c[nH]c2ccc(OC(=O)NCCCCCNc3c4c(nc5ccccc35)CCCC4)cc12 [Example 10, 3-[2-(acetylamino)ethyl]-1H-indol-5-yl[5-(1,2,3,4-tetrahydroacridin-9-ylamino)pentyl]carbamate]
IC50 (BChE from the plasma): 2.07 ± 0.5 nM | Selectivity IC50(AChE)/IC50(BChE) (BChE from the plasma): 90.1 | IC50 [1]: 186 ± 11.2 nM

CC(=O)NCCc1c[nH]c2ccc(OC(=O)NCCCCCCCCNc3c4c(nc5ccccc35)CCCC4)cc12 [Example 11, 3-[2-(acetylamino)ethyl]-1H-indol-5-yl[8-(1,2,3,4-tetrahydroacridin-9-ylamino)octyl]carbamate]
IC50 (BChE from the plasma): 0.25 ± 0.03 nM | Selectivity IC50(AChE)/IC50(BChE) (BChE from the plasma): 18.4 | IC50 [1]: 4.61 ± 0.32 nM

CC(=O)NCCc1c[nH]c2ccc(OC(=O)NCCCCCCCNc3c4c(nc5ccc(Cl)cc35)CCCC4)cc12 [Example 12, 3-[2-(acetylamino)ethyl]-1H-indol-5-yl{7-[(7-chloro-1,2,3,4-tetrahydroacridin-9-yl)amino]heptyl}carbamate]
Selectivity IC50(AChE)/IC50(BChE) (BChE from the plasma): 45.3

CC(=O)NCCc1c[nH]c2ccc(OC(=O)NCCNc3c4c(nc5ccc(Cl)cc35)CCCC4)cc12 [Example 13, 3-[2-(acetylamino)ethyl]-1H-indol-5-yl{2-[(7-chloro-1,2,3,4-tetrahydroacridin-9-yl)amino]ethyl}carbamate]
Selectivity IC50(AChE)/IC50(BChE) (BChE from the plasma): 400.1

CC(=O)NCCc1c[nH]c2ccc(OC(=O)NCCCCCCCCCCNc3c4c(nc5ccccc35)CCCC4)cc12 [Example 14, 3-[2-(acetylamino)ethyl]-1H-indol-5-yl[10-(1,2,3,4-tetrahydroacridin-9-ylamino)decyl]carbamate]
IC50 (BChE from the plasma): 0.28 ± 0.04 nM | Selectivity IC50(AChE)/IC50(BChE) (BChE from the plasma): 4.2 | IC50 [1]: 1.18 ± 0.12 nM

CC(=O)NCCc1c[nH]c2ccc(OC(=O)NCCCCCCCCCCCCNc3c4c(nc5ccccc35)CCCC4)cc12 [Example 15, 3-[2-(acetylamino)ethyl]-1H-indol-5-yl[12-(1,2,3,4-tetrahydroacridin-9-ylamino)dodecyl]carbamate]
IC50 (BChE from the plasma): 0.24 ± 0.08 nM | Selectivity IC50(AChE)/IC50(BChE) (BChE from the plasma): 15.8 | IC50 [1]: 3.8 ± 0.16 nM

CC(=O)NCCc1c[nH]c2ccc(OC(=O)NCCCCCCCCCCNc3c4c(nc5ccc(Cl)cc35)CCCC4)cc12 [Example 16, 3-[2-(acetylamino)ethyl]-1H-indol-5-yl{10-[(7-chloro-1,2,3,4-tetrahydroacridin-9-yl)amino]decyl}carbamate]
IC50 (BChE from the plasma): 1.64 ± 0.14 nM | Selectivity IC50(AChE)/IC50(BChE) (BChE from the plasma): 0.9 | IC50 [1]: 1.43 ± 0.02 nM

CC(=O)NCCc1c[nH]c2ccc(OC(=O)NCCCCCCCCCCCCNc3c4c(nc5ccc(Cl)cc35)CCCC4)cc12 [Example 17, 3-[2-(acetylamino)ethyl]-1H-indol-5-yl{12-[(7-chloro-1,2,3,4-tetrahydroacridin-9-yl)amino]dodecyl}carbamate]
IC50 (BChE from the plasma): 0.78 ± 0.16 nM | Selectivity IC50(AChE)/IC50(BChE) (BChE from the plasma): 9 | IC50 [1]: 7 ± 0.72 nM

CC(=O)NCCc1c[nH]c2ccc(OC(=O)NCCCCCCCCCCNc3c4c(nc5cc(Cl)ccc35)CCCC4)cc12 [Example 18, 3-[2-(acetylamino)ethyl]-1H-indol-5-yl{10-[(6-chloro-1,2,3,4-tetrahydroacridin-9-yl)amino]decyl}carbamate]
Selectivity IC50(AChE)/IC50(BChE) (BChE from the plasma): 6.7

CC(=O)NCCc1c[nH]c2ccc(OC(=O)NCCCCCCCCCCCCNc3c4c(nc5cc(Cl)ccc35)CCCC4)cc12 [Example 19, 3-[2-(acetylamino)ethyl]-1H-indol-5-yl{12-[(6-chloro-1,2,3,4-tetrahydroacridin-9-yl)amino]dodecyl}carbamate]
Selectivity IC50(AChE)/IC50(BChE) (BChE from the plasma): 19.5

— US8841453B2, “Hybrid cholinesterase inhibitors” (priority 2011, dated 2014)
